Experiments:
[1] = Urinary (renal) excretion in rats after a 30-min infusion of Kang-Ai injection; type: in vivo, Sprague–Dawley rats; settings: Kang-Ai injection 6 mL/kg iv
Procedure, shortened: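 Urine collected in metabolic cages at 0–4, 4–8, 8–12 h and bile at 0–3, 3–6, 6–9, 9–12 h after infusion start, weighed and frozen at −80 °C. Non-compartmental analysis; CLR and CLB as cumulative urinary or biliary amount divided by plasma AUC0-∞, fe-U and fe-B as cumulative amount/dose; mean ± SD (n = 3).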

CYP2A6 = molecular target: T1, CYP2A6 (Homo sapiens, UniProt P11509); assay: Inhibition of recombinant CYP2A6 (probe coumarin); type: in vitro ADME; settings: recombinant isozyme; mean ± SD of triplicate; unit not given (IC50 classes in μM); read-out: IC50 towards CYP2A6
T1 sequence (P11509 1-494): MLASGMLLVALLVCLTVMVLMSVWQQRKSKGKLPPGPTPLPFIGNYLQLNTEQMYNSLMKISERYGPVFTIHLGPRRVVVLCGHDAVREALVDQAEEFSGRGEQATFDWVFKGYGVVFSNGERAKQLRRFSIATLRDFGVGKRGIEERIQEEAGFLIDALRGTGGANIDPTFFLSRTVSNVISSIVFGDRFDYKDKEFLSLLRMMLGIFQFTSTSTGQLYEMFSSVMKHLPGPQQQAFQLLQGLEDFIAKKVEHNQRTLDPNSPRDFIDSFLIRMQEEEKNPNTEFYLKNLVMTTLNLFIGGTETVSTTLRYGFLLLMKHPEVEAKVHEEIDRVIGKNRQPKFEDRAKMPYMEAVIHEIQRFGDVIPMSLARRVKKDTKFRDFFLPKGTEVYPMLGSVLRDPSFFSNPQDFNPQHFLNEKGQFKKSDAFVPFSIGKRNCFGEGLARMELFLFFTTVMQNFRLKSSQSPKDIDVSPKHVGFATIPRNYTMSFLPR
Description: (§1) In this study, phenacetin (100 μM), coumarin (100 μM), bupropion (100 μM), paclitaxel (60 μM), tolbutamide (200 μM), mephenytoin (100 μM), chlorzoxazone (200 μM) and nifedipine (40 μM) have been used as the probe substrates for CYP1A2, 2A6, 2B6, 2C8, 2C9, 2C19, 2E1 and 3A4, respectively.

CYP3A4 = CYP3A4 (Homo sapiens, UniProt P08684); assay: Inhibition of recombinant CYP3A4 (probe nifedipine); type: in vitro ADME; settings: recombinant isozyme; mean ± SD of triplicate; unit not given (IC50 classes in μM); read-out: IC50 towards CYP3A4
Sequence of CYP3A4 (P08684 whole entry): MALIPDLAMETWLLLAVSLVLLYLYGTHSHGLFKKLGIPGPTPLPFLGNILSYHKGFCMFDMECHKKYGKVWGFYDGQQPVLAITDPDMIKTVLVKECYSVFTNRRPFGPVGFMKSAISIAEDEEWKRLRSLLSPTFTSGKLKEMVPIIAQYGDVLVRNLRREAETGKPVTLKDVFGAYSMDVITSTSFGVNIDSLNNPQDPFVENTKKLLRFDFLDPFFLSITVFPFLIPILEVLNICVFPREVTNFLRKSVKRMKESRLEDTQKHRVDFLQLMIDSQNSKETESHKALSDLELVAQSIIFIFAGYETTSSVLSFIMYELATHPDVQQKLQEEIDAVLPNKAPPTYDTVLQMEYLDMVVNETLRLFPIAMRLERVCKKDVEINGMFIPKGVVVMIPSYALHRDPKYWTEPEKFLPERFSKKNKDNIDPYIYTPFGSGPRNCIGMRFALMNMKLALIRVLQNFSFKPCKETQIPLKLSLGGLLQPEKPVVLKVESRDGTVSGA
Description: as §1

UGT1A9 = molecular target: T2, UGT1A9 (Homo sapiens, UniProt O60656); assay: Inhibition of expressed UGT1A9 (probe propofol); type: in vitro ADME; settings: recombinant isozyme; mean ± SD of triplicate; unit not given (IC50 classes in μM); read-out: IC50 towards UGT1A9
T2 sequence (O60656 26-530): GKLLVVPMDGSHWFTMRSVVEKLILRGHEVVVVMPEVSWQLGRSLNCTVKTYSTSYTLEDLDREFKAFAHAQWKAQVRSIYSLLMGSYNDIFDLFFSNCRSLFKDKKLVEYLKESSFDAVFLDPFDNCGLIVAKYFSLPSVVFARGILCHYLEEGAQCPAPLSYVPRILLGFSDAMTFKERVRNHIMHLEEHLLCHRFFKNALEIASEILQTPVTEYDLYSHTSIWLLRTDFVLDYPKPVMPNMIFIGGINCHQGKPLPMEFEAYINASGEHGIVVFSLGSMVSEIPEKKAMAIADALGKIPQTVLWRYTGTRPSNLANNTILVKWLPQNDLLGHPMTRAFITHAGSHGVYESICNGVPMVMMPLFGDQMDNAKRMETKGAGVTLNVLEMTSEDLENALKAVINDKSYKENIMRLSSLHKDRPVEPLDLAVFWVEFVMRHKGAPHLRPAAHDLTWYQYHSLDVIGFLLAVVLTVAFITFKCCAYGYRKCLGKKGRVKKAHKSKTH
Description: After centrifugation (13,800g, 10 min), the supernatant (8 μL) was obtained for determination by UHPLC system.
Similarly, β-estradiol (60 μM), propofol (40 μM) and 4-MU (350 μM) were typically used as the substrates for UGT1A1, 1A9 and 2B7, respectively. After optimization of incubation conditions (Additional file 1: Fig. S2), the protein concentrations for UGT1A1, 1A9, and 2B7 were 0.125, 0.05, and 0.05 mg/mL, respectively.

[2] = Stability tests of analytes in rat plasma QC samples; type: in vitro ADME; settings: rat plasma
Description: […] The dilution integrity was investigated by analyzing six replicate samples with each analyte, and each analyte were diluted 10-fold with blank rat matrix. Furthermore, the diluted samples were analyzed using freshly prepared calibration curve to calculate RE and RSD, which should be no more than ± 15% as criterion.

CC(C)=CCC[C@](C)(O)[C@H]1CC[C@]2(C)[C@@H]1[C@H](O)C[C@@H]1[C@@]3(C)CC[C@H](O)C(C)(C)[C@@H]3[C@@H](O[C@@H]3O[C@H](CO)[C@@H](O)[C@H](O)[C@H]3O[C@@H]3O[C@H](CO)[C@@H](O)[C@H](O)[C@H]3O)C[C@]12C [Compound C7, Ginsenoside Rf]
CL renal ([1]; male, Sprague-Dawley, urine and plasma, rat, read-out: CLR (renal excretory clearance) (converted)): 0.322 mL/min
fe-U,0–12h (fraction of dose excreted into urine) ([1]; rat urine 0–12 h): 17.77 ± 3.90%
IC50 (CYP2A6): > 100 µM
IC50 (CYP3A4): > 100 µM
IC50 (UGT1A9): > 100 µM
At -80 °C for 48 h, Mean±SD ([2]; nominal conc. 20 nM): 21.60 ± 0.37 nM
At -80 °C for 48 h, RE ([2]; nominal conc. 20 nM): 9.41%
Extracted samples at 8 °C for 18 h, Mean±SD ([2]; nominal conc. 20 nM): 19.73 ± 2.64 nM
Extracted samples at 8 °C for 18 h, RE ([2]; nominal conc. 20 nM): 13.56%
Short-term stability at room temperature for 6 h, Mean±SD ([2]; nominal conc. 20 nM): 20.44 ± 2.11 nM
Short-term stability at room temperature for 6 h, RE ([2]; nominal conc. 20 nM): 11.15%
Three freeze-thaw cycles (-80 °C ↔ 23 °C), Mean±SD ([2]; nominal conc. 20 nM): 22.07 ± 0.56 nM
Three freeze-thaw cycles (-80 °C ↔ 23 °C), RE ([2]; nominal conc. 20 nM): 13.46%
At -80 °C for 48 h, Mean±SD ([2]; nominal conc. 100 nM): 100.58 ± 11.11 nM
At -80 °C for 48 h, RE ([2]; nominal conc. 100 nM): 13.37%
Extracted samples at 8 °C for 18 h, Mean±SD ([2]; nominal conc. 100 nM): 93.83 ± 2.15 nM
Extracted samples at 8 °C for 18 h, RE ([2]; nominal conc. 100 nM): -8.56%
Short-term stability at room temperature for 6 h, Mean±SD ([2]; nominal conc. 100 nM): 96.37 ± 9.64 nM
Short-term stability at room temperature for 6 h, RE ([2]; nominal conc. 100 nM): -10.30%
Three freeze-thaw cycles (-80 °C ↔ 23 °C), Mean±SD ([2]; nominal conc. 100 nM): 101.34 ± 13.26 nM
Three freeze-thaw cycles (-80 °C ↔ 23 °C), RE ([2]; nominal conc. 100 nM): -13.01%
At -80 °C for 48 h, Mean±SD ([2]; nominal conc. 400 nM): 428.42 ± 28.06 nM
At -80 °C for 48 h, RE ([2]; nominal conc. 400 nM): 14.40%
Extracted samples at 8 °C for 18 h, Mean±SD ([2]; nominal conc. 400 nM): 392.21 ± 39.26 nM
Extracted samples at 8 °C for 18 h, RE ([2]; nominal conc. 400 nM): -12.43%
Short-term stability at room temperature for 6 h, Mean±SD ([2]; nominal conc. 400 nM): 357.16 ± 4.75 nM
Short-term stability at room temperature for 6 h, RE ([2]; nominal conc. 400 nM): -11.69%
Three freeze-thaw cycles (-80 °C ↔ 23 °C), Mean±SD ([2]; nominal conc. 400 nM): 398.07 ± 39.06 nM
Three freeze-thaw cycles (-80 °C ↔ 23 °C), RE ([2]; nominal conc. 400 nM): -10.52%

From paper PMC7339578, “Multiple circulating alkaloids and saponins from intravenous Kang-Ai injection inhibit human cytochrome P450 and UDP-glucuronosyltransferase isozymes: potential drug–drug interactions” (Chinese Medicine, 2020)
